Reference: ChEMBL document CHEMBL3301361, “Experimental in vitro DMPK and physicochemical data on a set of publicly disclosed compounds”
≈ marks a conversion by molar mass, not a printed value.

Columns and labels:
[1] = physchem; settings: pH 7.4 buffer
[2] = in vitro; settings: hepatocytes
[3] = in vitro; settings: human
[4] = physchem; settings: octan-1-ol/water, pH 7.4, LogD7.4

Compound	solubility thermodynamic [1] [µM]	hepatocyte CLint [2] [µL/min/1e6 cells]	microsomal CLint ([3]; microsomes) [µL/min/mg]	logD [4]	microsomal CLint ([3]; liver microsomes) [µL/min/mg]
Cc1nc2ccccn2c1-c1ccnc(N)n1	1510 (≈ 341 µg/mL)	21.4	50.1		
CCOc1nc2cccc(C(=O)O)c2n1Cc1ccc(-c2ccccc2-c2nnn[nH]2)cc1		< 3		0.3	< 3
CS(=O)(=O)c1ccc([C@H](CC2CCCC2)C(=O)Nc2nccs2)cc1	5.8 (≈ 2.2 µg/mL)	35.5	43.6	3.88	
O=C(CCOCCc1ccccc1)NCCNCCc1ccc(O)c2nc(O)sc12	1510 (≈ 650 µg/mL)	72	25		
Cc1c2c(=O)n(-c3ccccc3Cl)[nH]c2cc(=O)n1Cc1ccccn1		< 3		0.2	< 3
CNS(=O)(=O)Cc1ccc2[nH]cc(CCN(C)C)c2c1		8		-0.96	< 3
COc1cc(-c2ccc(Nc3ccccc3C(=O)O)c(OC)c2)ccc1Nc1ccccc1C(=O)O		31.6		1.8	6.61
Oc1ncnc2c1c(-c1ccccc1)cn2-c1ccc(Br)cc1	1.6 (≈ 0.586 µg/mL)	52.5			60.3
Cc1c(C(=O)Nc2ccccc2)sc2ncnc(O)c12	22.4 (≈ 6.39 µg/mL)	> 150		2.13	5
Cc1cc(C)nc(SCC(=O)Nc2cc(C)on2)n1		141		1.52	> 150
CCN(CC)CCn1c2ccccc2c2cnc(N)c(C#N)c21	58.9 (≈ 18.1 µg/mL)	77	71	2.7	
Cc1nc2ncnn2c(O)c1CCOC(=O)c1c(F)cccc1F		64.3		0.16	> 150
Cc1cc(CN2CCc3ccccc3C2C(=O)Nc2ccc(Cl)cc2Cl)ccc1OCC(=O)O (stereo not given)	166 (≈ 82.9 µg/mL)	20	15	2.63	
C[C@H]1C[C@@H](NS(=O)(=O)c2cc(Br)ccc2Br)CN1C#N	31.6 (≈ 13.4 µg/mL)	39	16	2.13	
CCNC(=O)c1cnc(N2CCN(C3CCN(Cc4ccc(Cl)cc4F)CC3)[C@@H](CC)C2)c(Cl)c1	91.2 (≈ 47.7 µg/mL)	38	11		
CCOc1ccc2oc(C(=O)NC(CCSC)c3nc4cnccc4[nH]3)c(C)c2c1 (stereo not given)	10.5 (≈ 4.46 µg/mL)	21		4.31	17
CN(CCNC[C@H](O)c1ccc(O)c2[nH]c(=O)sc12)C(=O)CCOCCc1ccccc1		43		1.21	35
CCOc1ccc(CCNCCCSCCNC[C@H](O)c2ccc(O)c3[nH]c(=O)sc23)cc1		8		0.41	75
O=c1[nH]c2c(O)ccc([C@@H](O)CNCCSCCCNCCc3cccc(C(F)(F)F)c3)c2s1		6		1.21	13
CN(C)CCNc1cc(-c2ccccc2)nc2cc(-c3ccc(F)cc3)nn12	2.1 (≈ 0.788 µg/mL)	24	11.2	4.5	

Compound	solubility thermodynamic [1] [µM]	hepatocyte CLint [2] [µL/min/1e6 cells]	microsomal CLint ([3]; microsomes) [µL/min/mg]	logD [4]	microsomal CLint ([3]; liver microsomes) [µL/min/mg]
Cc1ccc(CNC(=O)C2CCCN2S(=O)(=O)c2ccc(F)cc2)cc1 (stereo not given)	8.9 (≈ 3.35 µg/mL)	> 150		2.9	> 150
Cc1nc2ncnn2c(O)c1CCOC(=O)c1ccccc1F		129		0.99	> 150
CCC(CC)NC(=O)c1cnn(-c2ccccc2Cl)c1NS(=O)(=O)c1ccc(C)cc1		56		0.65	72
CCC(CC)NC(=O)c1cnn(C)c1NS(=O)(=O)c1ccc(C)cc1		27		0.36	13
CCC(CC)NC(=O)c1cnn(-c2ccccc2)c1NS(=O)(=O)c1ccc(-c2cnco2)cc1		52		0.8	27
Cc1ccc(S(=O)(=O)Nc2c(C(=O)N(C)C3CCCCC3)c(C)nn2-c2ccccc2)cc1		21		1.69	53
Cc1ccc(S(=O)(=O)Nc2c(C(=O)NC3CCCCC3C)cnn2-c2ccccc2)cc1 (stereo not given)		5		1.34	59
Cc1nn(-c2ccc(F)cc2)c(NS(=O)(=O)c2cccnc2)c1C(=O)N[C@@H](C)C(C)(C)C		12		0.4	< 3
Cc1ccc(S(=O)(=O)Nc2c(C(=O)N[C@@H](C)C(C)(C)C)c(C)nn2C2CCCCC2)cc1	871 (≈ 401 µg/mL)	8	33	1.97	
CN1CCC(Oc2cccc3ncnc(Nc4ccc(OCc5ccccn5)c(Cl)c4)c23)CC1	1.5 (≈ 0.714 µg/mL)	11			22
O=c1[nH]c2c(O)ccc([C@@H](O)CNCCc3ccc(CNCCc4ccccc4F)cc3)c2s1		14	22	1.3	
Cc1cccc2c(CCNCc3cccc(CCNC[C@H](O)c4ccc(O)c5[nH]c(=O)sc45)c3)c[nH]c12		24		1.13	16
O=c1[nH]c2c(O)ccc([C@@H](O)CNCCc3ccccc3CNCCc3ccccc3F)c2s1		107	27.5	1.58	
O=c1[nH]c2c(O)ccc([C@@H](O)CNCCc3cccc(CNCCCc4ccccc4)c3)c2s1		19		1.11	9
COc1ccc(CNCc2cccc(CCNC[C@H](O)c3ccc(O)c4[nH]c(=O)sc34)c2)cc1		13		0.86	62
COc1ccccc1CN(C)Cc1cccc(CCNC[C@H](O)c2ccc(O)c3[nH]c(=O)sc23)c1		33		1.52	45
O=C(Nc1cccc(-c2nnn[nH]2)c1)c1cc(C(F)(F)F)cc2[nH]cnc12		17.4		1.1	4.47
N[C@@H]1CCCN(c2c(/C=C3\SC(=O)NC3=O)cccc2-c2ccncc2)C1		8.91		1.56	8.51
COc1ccc2nc(C)cc(OCC(=O)Nc3ccccc3OC)c2c1		> 150	138	3.9	
N#CC1(NC(=O)[C@@H]2CCCC[C@H]2C(=O)N2CCc3[nH]c4ccc(F)cc4c3C2)CC1	525 (≈ 214 µg/mL)	41.4			12.5

Compound	solubility thermodynamic [1] [µM]	hepatocyte CLint [2] [µL/min/1e6 cells]	microsomal CLint ([3]; microsomes) [µL/min/mg]	logD [4]	microsomal CLint ([3]; liver microsomes) [µL/min/mg]
CCn1c(C)c(C(=O)O)c(-c2cccc(N3CCN(c4ccc(NS(=O)(=O)c5ccc(N[C@H](CCN6CCC(O)CC6)CSc6ccccc6)c(S(=O)(=O)C(F)(F)F)c5)cc4)CC3)c2)c1-c1ccc(Cl)cc1		17.4		4.2	15.1
CC[C@@H](Nc1c(Nc2cccc(C(=O)N(C)C)c2O)c(=O)c1=O)c1ccccc1	646 (≈ 254 µg/mL)	65		2.14	< 3
CN1CCN(CCOc2n[nH]c3ncnc(Nc4ccc(OCc5ccccn5)c(Cl)c4)c23)CC1	26.3 (≈ 13 µg/mL)	13.5		2.45	30.2
O=C(O)COc1ccc(C(=O)c2cccs2)c(Cl)c1Cl		61	82	-0.84	
O=C(O)[C@H](Cc1ccccc1)N1CCC(CN2CCC(Oc3ccc(CO)c(Cl)c3)CC2)CC1		28		0.8	< 3
COc1ccc(Cc2c(N)n[nH]c2N)cc1		3.63		0.2	5.37
Cc1ccc(CCOCCNS(=O)(=O)CCCNCCc2ccc(O)c3nc(O)sc23)cc1	372 (≈ 183 µg/mL)	> 150			> 150
Cn1c(-c2ccccc2C(F)(F)F)nnc1C12CCC(c3noc(-c4ccc(F)cc4)n3)(CC1)CC2	0.9 (≈ 0.448 µg/mL)	7.94			< 3
O=C(NCC12CC3CC(CC(C3)C1)C2)c1ccnc(NCC2CCNCC2)c1Cl		4	68	0.6	
COc1c(Nc2ccc(S(C)(=O)=O)nc2C)ncnc1OC1CCN(C(=O)OC(C)C)CC1 [ADP-597]		6.31	19.9	2.4	
O=C(Nc1c[nH]nc1-c1nc2cc(CN3CCOCC3)ccc2[nH]1)NC1CC1 [AT-9283]		< 3		2.3	8.32
COCC1=C(C(=O)OC(C)OC(=O)OC(C)C)N2C(=O)[C@@H](NC(=O)/C(=N\OC)c3csc(N)n3)[C@H]2SC1 (stereo not given in full) [CEFPODOXIME PROXETIL]		115		1.7	> 150
Cc1nccn1CCC(C(N)=O)(c1ccccc1)c1ccccc1 [IMIDAFENACIN]		46		1.79	< 3
C[C@]1(O)C[C@@H](c2nc(-c3ccc4ccc(-c5ccccc5)nc4c3)c3c(N)nccn32)C1 [LINSITINIB]	1.3 (≈ 0.548 µg/mL)	17			17.4
Cn1c(=O)c(Oc2ccc(F)cc2F)cc2cnc(NC(CCO)CCO)nc21 [PAMAPIMOD]		< 3	4.57	1.5	
Cc1cc(CCCOc2c(C)cc(-c3noc(C(F)(F)F)n3)cc2C)on1 [PLECONARIL]		13.5		3.63	14.4
Cc1oc(=O)oc1CN1CCN(c2cc3c(cc2F)c(=O)c(C(=O)O)c2n3C(C)S2)CC1 (stereo not given) [PRULIFLOXACIN]		69.2		0.47	15.5
Nc1c(C(=O)c2cccc(OC[C@@H](O)CO)c2)cnn1-c1ccc(F)cc1 [RO-3201195]		< 3	< 3	1.91	
